# In the kinase profiling compilation of Christmann-Franck et al. (2016):
# Tests used:
# Experiment in all cases: KINOMEscan competition binding
# Settings in all cases: compound 10.0 µM
# MARK2 (human) = MARK2 (human) (UniProt Q7KZI7)
# [1] = target: JAK2 JH1 catalytic (human) (UniProt O60674)
# ACVR1B (human) = ACVR1B (human) (UniProt P36896)
# MAP3K13 (human) = MAP3K13 (human) (UniProt O43283)
# EPHB1 (human) = EPHB1 (human) (UniProt P54762)
# TTK (human) = TTK (human) (UniProt P33981)
# [2] = tested on: RET (human), P07949 [V804M]
# NEK2 (human) = NEK2 (human) (UniProt P51955)
# PRKCH (human) = PRKCH (human) (UniProt P24723)
# PIM1 (human) = PIM1 (human) (UniProt P11309)
# MELK (human) = MELK (human) (UniProt Q14680)
# [3] = tested on: KIT (human), P10721 [V559D/V654A]
# MAK (human) = MAK (human) (UniProt P20794)
# PIK3CA (human) = PIK3CA (human) (UniProt P42336)
# STK39 (human) = STK39 (human) (UniProt Q9UEW8)
# ACVR2A (human) = ACVR2A (human) (UniProt P27037)
# CDK7 (human) = CDK7 (human) (UniProt P50613)
# FGFR2 (human) = FGFR2 (human) (UniProt P21802)
# LIMK2 (human) = LIMK2 (human) (UniProt P53671)
# MARK1 (human) = MARK1 (human) (UniProt Q9P0L2)
# CLK2 (human) = CLK2 (human) (UniProt P49760)
# MAPK8 (human) = MAPK8 (human) (UniProt P45983)
# CAMKK1 (human) = CAMKK1 (human) (UniProt Q8N5S9)
# [4] = target: JAK1 JH2 pseudokinase (human) (UniProt P23458)
# CHUK (human) = CHUK (human) (UniProt O15111)
# MATK (human) = MATK (human) (UniProt P42679)
# TNK1 (human) = TNK1 (human) (UniProt Q13470)
# GAK (human) = GAK (human) (UniProt O14976)
# EPHB3 (human) = EPHB3 (human) (UniProt P54753)
# CDK19 (human) = CDK19 (human) (UniProt Q9BWU1)
# EPHA8 (human) = EPHA8 (human) (UniProt P29322)
# MAP3K5 (human) = MAP3K5 (human) (UniProt Q99683)
# HUNK (human) = HUNK (human) (UniProt P57058)
# MINK1 (human) = MINK1 (human) (UniProt Q8N4C8)
# PTK2B (human) = PTK2B (human) (UniProt Q14289)
# DYRK2 (human) = DYRK2 (human) (UniProt Q92630)
# BTK (human) = BTK (human) (UniProt Q06187)
# PIK3CB (human) = PIK3CB (human) (UniProt P42338)
# YES1 (human) = YES1 (human) (UniProt P07947)
# ABL2 (human) = ABL2 (human) (UniProt P42684)
# EPHA7 (human) = EPHA7 (human) (UniProt Q15375)
# [5] = tested on: FLT3 (human), P36888 [ITD]
# Chain of PIM1 (human) (P11309 whole entry, looked up): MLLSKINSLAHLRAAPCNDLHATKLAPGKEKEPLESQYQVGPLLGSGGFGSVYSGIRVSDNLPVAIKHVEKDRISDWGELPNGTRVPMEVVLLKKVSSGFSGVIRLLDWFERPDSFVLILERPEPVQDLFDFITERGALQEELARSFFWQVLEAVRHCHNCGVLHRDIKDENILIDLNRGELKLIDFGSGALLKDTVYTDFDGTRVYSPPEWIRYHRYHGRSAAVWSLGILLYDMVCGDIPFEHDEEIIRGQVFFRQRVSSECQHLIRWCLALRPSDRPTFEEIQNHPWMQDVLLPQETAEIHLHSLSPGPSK
# Chain of HUNK (human) (P57058 whole entry, looked up): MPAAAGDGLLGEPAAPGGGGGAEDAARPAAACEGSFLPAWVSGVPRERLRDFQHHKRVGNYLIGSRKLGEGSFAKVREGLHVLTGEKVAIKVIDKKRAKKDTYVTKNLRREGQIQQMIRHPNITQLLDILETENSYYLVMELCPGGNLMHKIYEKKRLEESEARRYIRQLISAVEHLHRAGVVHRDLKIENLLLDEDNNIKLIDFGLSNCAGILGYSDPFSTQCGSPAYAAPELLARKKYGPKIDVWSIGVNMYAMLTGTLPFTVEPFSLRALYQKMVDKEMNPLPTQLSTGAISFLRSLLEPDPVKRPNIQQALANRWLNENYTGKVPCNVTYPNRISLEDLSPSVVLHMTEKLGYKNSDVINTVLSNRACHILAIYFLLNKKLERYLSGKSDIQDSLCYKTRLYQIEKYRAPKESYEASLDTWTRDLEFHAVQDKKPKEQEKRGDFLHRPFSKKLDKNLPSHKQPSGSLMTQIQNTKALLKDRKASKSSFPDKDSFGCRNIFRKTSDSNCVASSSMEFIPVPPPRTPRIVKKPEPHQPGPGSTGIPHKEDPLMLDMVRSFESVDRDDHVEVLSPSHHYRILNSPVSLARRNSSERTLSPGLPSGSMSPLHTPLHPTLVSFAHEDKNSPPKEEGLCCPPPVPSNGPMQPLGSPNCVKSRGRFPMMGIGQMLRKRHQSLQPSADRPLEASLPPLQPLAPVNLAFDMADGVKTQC
# Chain of ABL2 (human) (P42684 whole entry, looked up): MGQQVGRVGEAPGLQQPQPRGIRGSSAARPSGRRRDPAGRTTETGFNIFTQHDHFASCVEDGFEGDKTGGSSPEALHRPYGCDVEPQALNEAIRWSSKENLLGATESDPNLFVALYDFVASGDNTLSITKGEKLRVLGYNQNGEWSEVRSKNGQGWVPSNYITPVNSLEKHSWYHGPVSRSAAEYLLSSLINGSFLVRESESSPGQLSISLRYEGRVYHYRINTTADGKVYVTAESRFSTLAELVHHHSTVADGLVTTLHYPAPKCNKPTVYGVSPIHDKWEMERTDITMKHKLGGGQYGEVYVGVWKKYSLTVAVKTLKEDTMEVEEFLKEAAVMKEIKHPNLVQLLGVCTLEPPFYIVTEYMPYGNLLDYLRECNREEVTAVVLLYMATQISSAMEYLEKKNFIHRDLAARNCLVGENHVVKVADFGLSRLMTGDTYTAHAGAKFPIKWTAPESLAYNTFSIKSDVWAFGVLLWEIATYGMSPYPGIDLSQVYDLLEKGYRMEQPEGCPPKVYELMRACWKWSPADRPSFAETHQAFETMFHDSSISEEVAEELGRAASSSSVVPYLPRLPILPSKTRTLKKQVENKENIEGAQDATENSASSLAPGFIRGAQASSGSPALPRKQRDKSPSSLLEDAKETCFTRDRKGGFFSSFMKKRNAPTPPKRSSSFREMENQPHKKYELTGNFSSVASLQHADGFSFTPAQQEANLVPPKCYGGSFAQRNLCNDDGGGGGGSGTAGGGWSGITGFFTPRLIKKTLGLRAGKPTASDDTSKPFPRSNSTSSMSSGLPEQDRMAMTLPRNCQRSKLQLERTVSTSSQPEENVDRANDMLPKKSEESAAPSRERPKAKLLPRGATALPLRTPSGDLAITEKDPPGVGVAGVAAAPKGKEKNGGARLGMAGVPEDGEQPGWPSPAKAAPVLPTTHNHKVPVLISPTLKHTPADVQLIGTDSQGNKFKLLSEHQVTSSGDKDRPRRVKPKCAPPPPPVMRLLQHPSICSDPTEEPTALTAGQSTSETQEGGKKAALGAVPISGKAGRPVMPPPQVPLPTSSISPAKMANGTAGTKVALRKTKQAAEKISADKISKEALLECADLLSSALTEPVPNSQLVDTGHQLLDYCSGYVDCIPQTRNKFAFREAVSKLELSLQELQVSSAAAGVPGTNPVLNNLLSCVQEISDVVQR
# Chain of PIK3CB (human) (P42338 whole entry, looked up): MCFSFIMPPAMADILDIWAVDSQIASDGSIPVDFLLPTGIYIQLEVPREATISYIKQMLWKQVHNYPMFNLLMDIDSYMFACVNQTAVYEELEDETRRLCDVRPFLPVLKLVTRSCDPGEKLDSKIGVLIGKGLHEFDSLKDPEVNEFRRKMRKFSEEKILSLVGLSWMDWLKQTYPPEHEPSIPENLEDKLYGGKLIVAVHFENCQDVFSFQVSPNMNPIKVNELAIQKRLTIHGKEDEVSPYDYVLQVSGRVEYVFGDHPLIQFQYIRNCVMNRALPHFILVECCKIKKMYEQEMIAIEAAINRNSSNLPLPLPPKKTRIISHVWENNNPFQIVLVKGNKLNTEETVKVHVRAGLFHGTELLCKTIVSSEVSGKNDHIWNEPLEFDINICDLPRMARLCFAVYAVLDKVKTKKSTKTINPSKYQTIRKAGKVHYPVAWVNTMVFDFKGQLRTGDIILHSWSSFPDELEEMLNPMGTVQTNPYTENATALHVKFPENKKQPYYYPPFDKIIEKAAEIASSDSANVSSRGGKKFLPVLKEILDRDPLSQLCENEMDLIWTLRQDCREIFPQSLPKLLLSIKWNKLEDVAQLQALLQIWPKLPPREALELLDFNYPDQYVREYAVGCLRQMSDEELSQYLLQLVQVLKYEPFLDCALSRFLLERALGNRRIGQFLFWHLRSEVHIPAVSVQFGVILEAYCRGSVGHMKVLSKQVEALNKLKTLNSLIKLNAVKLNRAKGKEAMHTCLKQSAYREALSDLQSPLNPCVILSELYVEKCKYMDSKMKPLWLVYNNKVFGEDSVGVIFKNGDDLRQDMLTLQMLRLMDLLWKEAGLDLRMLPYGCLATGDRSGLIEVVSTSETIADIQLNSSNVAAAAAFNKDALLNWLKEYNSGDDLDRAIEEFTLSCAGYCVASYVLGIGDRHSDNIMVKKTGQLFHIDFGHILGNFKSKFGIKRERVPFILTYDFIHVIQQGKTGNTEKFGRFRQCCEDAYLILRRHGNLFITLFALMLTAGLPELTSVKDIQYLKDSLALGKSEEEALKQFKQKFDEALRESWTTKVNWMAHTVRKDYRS
# Chain of RET (human), P07949 [V804M] (P07949 whole entry V804M, looked up): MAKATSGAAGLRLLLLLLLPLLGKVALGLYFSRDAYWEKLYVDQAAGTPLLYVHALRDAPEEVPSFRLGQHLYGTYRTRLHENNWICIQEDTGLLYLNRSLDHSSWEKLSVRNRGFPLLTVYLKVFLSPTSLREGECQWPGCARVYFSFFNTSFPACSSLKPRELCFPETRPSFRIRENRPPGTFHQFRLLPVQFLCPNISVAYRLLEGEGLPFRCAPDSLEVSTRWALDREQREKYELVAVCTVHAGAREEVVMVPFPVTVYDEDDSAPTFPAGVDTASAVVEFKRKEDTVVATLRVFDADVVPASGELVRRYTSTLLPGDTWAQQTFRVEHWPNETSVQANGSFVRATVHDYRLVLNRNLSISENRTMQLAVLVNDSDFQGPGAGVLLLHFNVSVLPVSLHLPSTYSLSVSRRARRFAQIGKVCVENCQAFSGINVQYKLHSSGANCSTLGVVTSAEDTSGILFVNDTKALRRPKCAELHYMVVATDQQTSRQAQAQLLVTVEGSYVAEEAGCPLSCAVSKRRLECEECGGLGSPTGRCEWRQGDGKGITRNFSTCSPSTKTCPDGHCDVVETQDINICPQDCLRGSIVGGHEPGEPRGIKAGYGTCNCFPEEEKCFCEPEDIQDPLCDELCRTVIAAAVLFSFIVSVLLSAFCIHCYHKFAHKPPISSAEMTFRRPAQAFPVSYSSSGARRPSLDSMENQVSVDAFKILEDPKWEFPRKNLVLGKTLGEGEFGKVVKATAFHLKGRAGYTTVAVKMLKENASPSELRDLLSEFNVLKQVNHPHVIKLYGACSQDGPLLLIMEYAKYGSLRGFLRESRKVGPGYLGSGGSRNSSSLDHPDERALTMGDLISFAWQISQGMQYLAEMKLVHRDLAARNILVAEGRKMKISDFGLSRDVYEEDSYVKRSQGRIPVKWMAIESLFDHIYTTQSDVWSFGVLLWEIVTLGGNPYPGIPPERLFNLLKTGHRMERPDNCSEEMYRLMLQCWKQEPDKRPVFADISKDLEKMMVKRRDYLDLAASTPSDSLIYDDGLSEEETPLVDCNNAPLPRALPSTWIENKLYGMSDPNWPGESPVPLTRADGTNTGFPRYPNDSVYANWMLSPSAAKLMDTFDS
# Chain of LIMK2 (human) (P53671 whole entry, looked up): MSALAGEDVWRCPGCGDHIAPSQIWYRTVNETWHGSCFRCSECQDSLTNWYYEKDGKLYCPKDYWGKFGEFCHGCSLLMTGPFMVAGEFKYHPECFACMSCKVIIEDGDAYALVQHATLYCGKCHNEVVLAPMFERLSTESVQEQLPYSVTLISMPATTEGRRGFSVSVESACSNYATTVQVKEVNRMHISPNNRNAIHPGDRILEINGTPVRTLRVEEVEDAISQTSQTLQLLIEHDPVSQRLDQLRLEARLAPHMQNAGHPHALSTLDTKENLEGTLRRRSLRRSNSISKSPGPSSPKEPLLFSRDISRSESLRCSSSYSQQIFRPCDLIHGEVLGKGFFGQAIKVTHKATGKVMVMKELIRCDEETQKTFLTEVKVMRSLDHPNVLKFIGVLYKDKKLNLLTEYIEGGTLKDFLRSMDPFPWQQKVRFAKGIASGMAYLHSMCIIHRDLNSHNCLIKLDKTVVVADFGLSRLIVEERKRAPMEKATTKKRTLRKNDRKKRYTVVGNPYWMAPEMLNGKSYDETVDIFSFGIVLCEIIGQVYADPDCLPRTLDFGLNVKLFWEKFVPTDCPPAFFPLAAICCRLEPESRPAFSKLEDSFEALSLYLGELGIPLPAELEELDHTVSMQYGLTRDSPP
compound,measurement,setting,value
COc1ccc(CNC(=O)Nc2ncc([N+](=O)[O-])s2)cc1,"kinase still bound, per cent of control",MARK2 (human),100%
same,"kinase still bound, per cent of control",[1],100%
same,"kinase still bound, per cent of control",ACVR1B (human),86%
same,"kinase still bound, per cent of control",MAP3K13 (human),70%
same,"kinase still bound, per cent of control",EPHB1 (human),85%
same,"kinase still bound, per cent of control",TTK (human),100%
same,"kinase still bound, per cent of control",[2],96%
same,"kinase still bound, per cent of control",NEK2 (human),90%
same,"kinase still bound, per cent of control",PRKCH (human),100%
same,"kinase still bound, per cent of control",PIM1 (human),75%
same,"kinase still bound, per cent of control",MELK (human),63%
same,"kinase still bound, per cent of control",[3],88%
same,"kinase still bound, per cent of control",MAK (human),94%
same,"kinase still bound, per cent of control",PIK3CA (human),100%
same,"kinase still bound, per cent of control",STK39 (human),100%
same,"kinase still bound, per cent of control",ACVR2A (human),87%
same,"kinase still bound, per cent of control",CDK7 (human),100%
same,"kinase still bound, per cent of control",FGFR2 (human),81%
same,"kinase still bound, per cent of control",LIMK2 (human),100%
same,"kinase still bound, per cent of control",MARK1 (human),100%
same,"kinase still bound, per cent of control",CLK2 (human),73%
same,"kinase still bound, per cent of control",MAPK8 (human),100%
same,"kinase still bound, per cent of control",CAMKK1 (human),93%
same,"kinase still bound, per cent of control",[4],89%
same,"kinase still bound, per cent of control",CHUK (human),100%
same,"kinase still bound, per cent of control",MATK (human),95%
same,"kinase still bound, per cent of control",TNK1 (human),100%
same,"kinase still bound, per cent of control",GAK (human),98%
same,"kinase still bound, per cent of control",EPHB3 (human),100%
same,"kinase still bound, per cent of control",CDK19 (human),100%
same,"kinase still bound, per cent of control",EPHA8 (human),100%
same,"kinase still bound, per cent of control",MAP3K5 (human),71%
same,"kinase still bound, per cent of control",HUNK (human),81%
same,"kinase still bound, per cent of control",MINK1 (human),86%
same,"kinase still bound, per cent of control",PTK2B (human),100%
same,"kinase still bound, per cent of control",DYRK2 (human),68%
same,"kinase still bound, per cent of control",BTK (human),100%
same,"kinase still bound, per cent of control",PIK3CB (human),100%
same,"kinase still bound, per cent of control",YES1 (human),83%
same,"kinase still bound, per cent of control",ABL2 (human),89%
same,"kinase still bound, per cent of control",EPHA7 (human),100%
O=C1Nc2cc(Br)ccc2/C1=C1/Nc2ccccc2/C1=N\O,"kinase still bound, per cent of control",MARK2 (human),19%
same,"kinase still bound, per cent of control",[1],25%
same,"kinase still bound, per cent of control",ACVR1B (human),77%
same,"kinase still bound, per cent of control",MAP3K13 (human),54%
same,"kinase still bound, per cent of control",EPHB1 (human),43%
same,"kinase still bound, per cent of control",TTK (human),3.8%
same,"kinase still bound, per cent of control",[2],0%
same,"kinase still bound, per cent of control",NEK2 (human),82%
same,"kinase still bound, per cent of control",PRKCH (human),100%
same,"kinase still bound, per cent of control",PIM1 (human),62%
same,"kinase still bound, per cent of control",MELK (human),8.7%
same,"kinase still bound, per cent of control",[3],0.9%
same,"kinase still bound, per cent of control",MAK (human),0.8%
same,"kinase still bound, per cent of control",PIK3CA (human),93%
same,"kinase still bound, per cent of control",STK39 (human),37%
same,"kinase still bound, per cent of control",ACVR2A (human),41%
same,"kinase still bound, per cent of control",CDK7 (human),12%
same,"kinase still bound, per cent of control",FGFR2 (human),15%
same,"kinase still bound, per cent of control",LIMK2 (human),92%
same,"kinase still bound, per cent of control",MARK1 (human),38%
same,"kinase still bound, per cent of control",CLK2 (human),8.2%
same,"kinase still bound, per cent of control",MAPK8 (human),23%
same,"kinase still bound, per cent of control",CAMKK1 (human),4.8%
same,"kinase still bound, per cent of control",[5],0.15%
same,"kinase still bound, per cent of control",[4],48%
same,"kinase still bound, per cent of control",CHUK (human),83%
same,"kinase still bound, per cent of control",MATK (human),30%
same,"kinase still bound, per cent of control",TNK1 (human),16%
same,"kinase still bound, per cent of control",GAK (human),2.1%
same,"kinase still bound, per cent of control",EPHB3 (human),100%
same,"kinase still bound, per cent of control",CDK19 (human),100%
same,"kinase still bound, per cent of control",EPHA8 (human),40%
same,"kinase still bound, per cent of control",MAP3K5 (human),100%
same,"kinase still bound, per cent of control",HUNK (human),79%
same,"kinase still bound, per cent of control",MINK1 (human),6.2%
same,"kinase still bound, per cent of control",PTK2B (human),9.3%
same,"kinase still bound, per cent of control",BTK (human),38%
same,"kinase still bound, per cent of control",PIK3CB (human),88%
same,"kinase still bound, per cent of control",YES1 (human),6.4%
same,"kinase still bound, per cent of control",ABL2 (human),1.2%
same,"kinase still bound, per cent of control",EPHA7 (human),62%
